From PMC9490236, “Accurate de novo design of membrane-traversing macrocycles” (Cell, 2022)
Like-named read-outs stand apart in the source and are kept apart here. Where a SMILES comes first, the peptide text is derived from it. [ ]: non-standard residue; d: D form. dNMeI = CC[C@@H](C)[C@@H](NC)C(=O)O; NMeF = CN[C@@H](Cc1ccccc1)C(=O)O; dNMeF = CN[C@H](Cc1ccccc1)C(=O)O; NMeL = CN[C@@H](CC(C)C)C(=O)O; dNMeL = CN[C@H](CC(C)C)C(=O)O; NMeA = CN[C@@H](C)C(=O)O; dNMeA = CN[C@H](C)C(=O)O

Tests used:
[1] = Parallel artificial membrane permeability assay (PAMPA); conditions: for PAMPA_R1 / PAMPA_R3: PAMPA Papp; for PAMPA_R1: replicate 1; for PAMPA_R3: replicate 3
[2] = PAMPA
in vitro = conditions: PAMPA, PAMPA_Papp_Avg
Caco-2 cells = assay: Caco-2 permeability assay (apical to basolateral); format: in vitro ADME, human; conditions: Caco-2
Summary of the method: (§1)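 Apical-to-basolateral flux was determined by LC-MS of both compartments after 90 min at 37°C on an orbital shaker, with 50 μM peptide on the apical side and HBSS below. Monolayers were grown for 6 days in an accelerated Caco-2 Transwell format and verified by TEER before and after the run.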

[3] = Caco-2 permeability assay (apical to basolateral); format: in vitro ADME, human; conditions: for Papp A→B: Caco-2, Caco_Papp_Average; for Papp at 90 min, 50 µM: human, Caco-2
Summary of the method: as §1

[4] = BQL = no significant peak detected for the peptide in the acceptor wells
[5] = BQL: No significant peak detected for the peptide in the acceptor wells

| Compound | PAMPA_R1 [1, 4] | PAMPA_R3 [1, 4] | PAMPA_Papp_Avg ([1]; average of replicates R1-R3, BQL = no significant peak detected for the peptide in the acceptor wells) | PAMPA_R1 [2] | PAMPA_R3 [2] | Papp (in vitro) [×10⁻⁶ cm/s] | Caco_R1 (Caco-2 cells) | Caco_R3 (Caco-2 cells) | Papp A→B [3] [×10⁻⁶ cm/s] | Papp at 90 min, 50 µM [3] [×10⁻⁶ cm/s] | Papp ([1]; PAMPA) [×10⁻⁶ cm/s] | PAMPA_R1 [1, 5] | PAMPA_R3 [1, 5] | PAMPA_Papp_Avg ([1]; average of 3 replicates, BQL: No significant peak detected for the peptide in the acceptor wells) |
| --- | --- | --- | --- | --- | --- | --- | --- | --- | --- | --- | --- | --- | --- | --- |
| CC[C@@H](C)[C@H]1NC(=O)[C@@H]2CCCN2C(=O)[C@@H](Cc2ccccc2)N(C)C(=O)[C@@H](CC(C)C)N(C)C(=O)[C@@H](C(C)C)NC(=O)[C@@H](CC(C)C)N(C)C(=O)[C@H](Cc2ccccc2)N(C)C(=O)[C@H](C(C)C)NC(=O)[C@H]2CCCN2C1=O [Design D9.7, VAL *PHE *DLEU DVAL *DLEU *DPHE PRO DILE DPRO] (cyclo([NMeF][dNMeL][dV][dNMeL][dNMeF]P[dI][dP]V)) | BQL | BQL | BQL |  |  |  |  |  |  |  |  |  |  |  |
| CC[C@@H](C)[C@H]1NC(=O)[C@H](Cc2ccccc2)NC(=O)[C@@H](CC(C)C)N(C)C(=O)[C@@H]2CCCN2C(=O)[C@@H](C(C)C)NC(=O)[C@@H](C)N(C)C(=O)[C@H]2CCCN2C(=O)[C@@H](CC(C)C)NC(=O)[C@H](CC(C)C)NC(=O)[C@@H]2CCCN2C1=O [Design D10.30, PRO *DLEU PHE DILE PRO LEU DLEU DPRO *DALA DVAL] (cyclo(F[dI]PL[dL][dP][dNMeA][dV]P[dNMeL])) |  |  |  | 5.23E-06 | 4.05E-06 | 4.78 | 15.3 | 15.5 | 16.1 | > 10 |  |  |  |  |
| CC[C@H](C)[C@@H]1NC(=O)[C@@H](CC(C)C)NC(=O)[C@@H](C)N(C)C(=O)[C@H](Cc2ccccc2)NC(=O)[C@@H](CC(C)C)NC(=O)[C@@H](C)N(C)C(=O)[C@@H]2CCCN2C(=O)[C@H](C(C)C)NC(=O)[C@H]2CCCN2C(=O)[C@@H]2CCCN2C1=O [Design D10.31, PHE *DALA DLEU ILE PRO DPRO VAL PRO *DALA DLEU] (cyclo(F[dNMeA][dL]IP[dP]VP[dNMeA][dL])) |  |  |  | 1.81E-06 | 2.20E-06 | 1.9 | 1.93 | 3.02 | 2.79 |  |  |  |  |  |
| CC[C@@H](C)[C@H]1NC(=O)[C@@H](Cc2ccccc2)NC(=O)[C@@H](CC(C)C)NC(=O)[C@@H]2CCCN2C(=O)[C@H]2CCCN2C(=O)[C@H](CC(C)C)NC(=O)[C@H](CC(C)C)NC(=O)[C@@H](CC(C)C)N(C)C(=O)[C@H](C)N(C)C(=O)[C@H]2CCCN2C1=O [Design D10.34, DPHE DILE DPRO *ALA *DLEU LEU LEU DPRO PRO DLEU] (cyclo([dL][dF][dI][dP][NMeA][dNMeL]LL[dP]P)) |  |  |  | 4.77E-06 | 4.57E-06 | 4.51 | 14.68 | 14.14 | 15 | > 10 |  |  |  |  |
| CC[C@H](C)[C@@H]1NC(=O)[C@@H](C(C)C)NC(=O)[C@@H](CC(C)C)N(C)C(=O)[C@H]2CCCN2C(=O)[C@@H](CC(C)C)NC(=O)[C@@H](CC(C)C)N(C)C(=O)[C@H](CC(C)C)NC(=O)[C@H]2CCCN2C(=O)[C@H](C)N(C)C(=O)[C@H]2CCCN2C1=O [Design D10.41, DPRO *DLEU DVAL ILE DPRO *ALA DPRO LEU *DLEU DLEU] (cyclo(I[dP][NMeA][dP]L[dNMeL][dL][dP][dNMeL][dV])) |  |  |  | 5.92E-06 | 5.38E-06 | 5.69 | 4.42 | 10.34 | 7.66 |  |  |  |  |  |
| CC[C@@H](C)[C@H]1NC(=O)[C@@H]2CCCN2C(=O)[C@@H]([C@H](C)CC)NC(=O)[C@@H](C)N(C)C(=O)[C@H](CC(C)C)NC(=O)[C@@H](Cc2ccccc2)NC(=O)[C@H](CC(C)C)N(C)C(=O)[C@H]2CCCN2C(=O)[C@@H](CC(C)C)NC(=O)[C@H](CC(C)C)NC(=O)[C@H]2CCCN2C1=O [Design D11.1, DILE DPRO LEU DLEU DPRO *LEU DPHE LEU *DALA DILE PRO] (cyclo(L[dL][dP][NMeL][dF]L[dNMeA][dI]P[dI][dP])) |  |  |  | 3.55E-06 | 3.63E-06 | 3.48 | 2.39 | 3.24 | 2.77 |  |  |  |  |  |
| CC[C@@H](C)[C@H]1NC(=O)[C@H]([C@@H](C)CC)NC(=O)[C@H](Cc2ccccc2)N(C)C(=O)[C@H]2CCCN2C(=O)[C@@H]([C@H](C)CC)NC(=O)[C@@H]([C@H](C)CC)N(C)C(=O)[C@H](CC(C)C)NC(=O)[C@H]2CCCN2C(=O)[C@@H]2CCCN2C(=O)[C@H](C(C)C)NC(=O)[C@H]2CCCN2C1=O [Design D11.4, VAL PRO DPRO LEU *DILE DILE DPRO *PHE ILE DILE DPRO] (cyclo(I[dI][dP]VP[dP]L[dNMeI][dI][dP][NMeF])) |  |  |  | 1.64E-06 | 6.73E-07 | 1.47 | 3.83 | 6.55 | 4.99 |  |  |  |  |  |
| CC[C@@H](C)[C@H]1NC(=O)[C@@H](CC(C)C)NC(=O)[C@H](C(C)C)NC(=O)[C@@H](CC(C)C)N(C)C(=O)[C@@H]2CCCN2C(=O)[C@H](C)NC(=O)[C@H](CC(C)C)N(C)C(=O)[C@H]2CCCN2C(=O)[C@H](C)N(C)C(=O)[C@@H](CC(C)C)N(C)C(=O)[C@@H]2CCCN2C1=O [Design D11.5, ALA PRO *DLEU VAL DLEU DILE PRO *DLEU *ALA DPRO *LEU] (cyclo(AP[dNMeL]V[dL][dI]P[dNMeL][NMeA][dP][NMeL])) |  |  |  | 2.56E-06 | 3.12E-06 | 2.81 | 2.93 | 3.89 | 3.84 |  |  |  |  |  |
| CC[C@@H](C)[C@H]1NC(=O)[C@H](C)N(C)C(=O)[C@H]([C@@H](C)CC)NC(=O)[C@H]2CCCN2C(=O)[C@H](CC(C)C)N(C)C(=O)[C@@H](C(C)C)NC(=O)[C@H](C)N(C)C(=O)[C@H]([C@@H](C)CC)NC(=O)[C@@H](CC(C)C)NC(=O)[C@@H]2CCCN2C(=O)[C@H]2CCCN2C1=O [Design D11.10, DPRO ILE *ALA DILE DPRO PRO DLEU ILE *ALA DVAL *LEU] (cyclo([dL]I[NMeA][dV][NMeL][dP]I[NMeA][dI][dP]P)) |  |  |  | 2.19E-06 | 3.23E-06 | 2.45 | 4.35 | 4.8 | 4.54 |  |  |  |  |  |
| CC[C@H](C)[C@@H]1NC(=O)[C@@H](CC(C)C)N(C)C(=O)[C@H](CC(C)C)N(C)C(=O)[C@@H](Cc2ccccc2)NC(=O)[C@@H](CC(C)C)N(C)C(=O)[C@H]2CCCN2C(=O)[C@H]2CCCN2C(=O)[C@@H]2CCCN2C(=O)[C@@H](C(C)C)NC(=O)[C@@H]2CCCN2C(=O)[C@H](C)NC1=O [Design D11.11, PRO DPRO DPRO *DLEU DPHE *LEU *DLEU ILE ALA PRO DVAL] (cyclo(AP[dV]P[dP][dP][dNMeL][dF][NMeL][dNMeL]I)) |  |  |  | 1.97E-06 | 2.38E-06 | 2.26 | 2.88 | 5.78 | 4.92 |  |  |  |  |  |
| CC[C@H](C)[C@@H]1NC(=O)[C@@H]2CCCN2C(=O)[C@H]2CCCN2C(=O)[C@@H](CC(C)C)NC(=O)[C@@H](CC(C)C)N(C)C(=O)[C@@H](C(C)C)NC(=O)[C@H](C(C)C)NC(=O)[C@H]2CCCN2C(=O)[C@@H]2CCCN2C(=O)[C@H]([C@@H](C)CC)NC(=O)[C@H](C)N(C)C1=O [Design D11.13, PRO DPRO VAL DVAL *DLEU DLEU DPRO PRO ILE *ALA ILE] (cyclo(I[NMeA]IP[dP]V[dV][dNMeL][dL][dP]P)) |  |  |  | 9.91E-07 | 1.30E-06 | 1.07 | 4.34 | 4.75 | 4.5 |  |  |  |  |  |
| CC(C)C[C@@H]1NC(=O)[C@H](CC(C)C)N(C)C(=O)[C@H]2CCCN2C(=O)[C@H]2CCCN2C(=O)[C@H](CC(C)C)NC(=O)[C@@H](CC(C)C)N(C)C(=O)[C@@H](C)NC(=O)[C@@H](CC(C)C)N(C)C(=O)[C@H]2CCCN2C(=O)[C@@H](CC(C)C)NC(=O)[C@@H](C)N(C)C1=O [Design D11.15, LEU DPRO DPRO *LEU LEU *DALA DLEU DPRO *DLEU DALA *DLEU] (cyclo(L[dNMeA][dL][dP][dNMeL][dA][dNMeL]L[dP][dP][NMeL])) |  |  |  |  |  |  |  |  |  |  | 1.29 | 9.49E-07 | 1.56E-06 |  |
| CC[C@@H](C)[C@H]1NC(=O)[C@H]2CCCN2C(=O)[C@H]([C@@H](C)CC)NC(=O)[C@@H]2CCCN2C(=O)[C@H]2CCCN2C(=O)[C@@H](CC(C)C)NC(=O)[C@H](CC(C)C)NC(=O)[C@H](C(C)C)NC(=O)[C@H](CC(C)C)NC(=O)[C@H](C)NC(=O)[C@H](C)NC(=O)[C@@H]2CCCN2C1=O [Design D12.1, PRO ILE DPRO DILE PRO ALA ALA LEU VAL LEU DLEU DPRO] (cyclo(I[dP][dI]PAALVL[dL][dP]P)) |  |  |  |  |  |  |  |  |  |  |  | BQL | BQL | BQL |
